The source of these data is patent US9073893B2, “3-Oxo-2,3-dihydro-1H-indazole-4-carboxamide derivatives as PARP-1 inhibitors” (priority 2011, dated 2015).

Series [1] has as its target PARP-3 (Homo sapiens (Human), UniProt Q9Y6F1). The conditions noted are these: probe P1; for DC50: read-out: PARP-3 (DC50 μM); for Kd: read-out: PARP-3 (Kd μM).
Protocol: (§1) Affinity evaluation of the tested compounds and their selectivity with respect to the different PARP isoforms of interest was assessed in a displacement assay.
(§2) a) providing a reaction mixture containing:
(§3) the PARP protein isoform under investigation,
a compound of formula (IP):
(§4) wherein R11 is hydrogen or a methyl group, B is (CH2)n—NH group wherein n is 2 to 6; m is 0 or 1 and X^− is a counterion, and
serial dilutions of the test compound;
(§5) b) comparing the polarization signal generated in the absence of the test compound with the one generated in the presence of different concentrations of the test compound, and
(§6) c) evaluating the ability of the test compound to displace the compound of formula (IP) as defined above indicated from a decreased fluorescence polarization level.
(§7) The 5H-phenanthridin-6-one-derived probe (IP) was selected for its capability of binding to the PARP proteins, both encompassing full-length native proteins and fragment thereof.
(§8) The polarization signal can be measured, e.g., by a plate reader such as the Saphire2 (Tecan). Data analysis was performed, e.g., by using the Dynafit software. Displacement data were also fitted, e.g., by using Excel spreadsheet (Microsoft Inc. Seattle, USA) to a four parameter logistic model (4PL), or Hill-Slope model. The assay was used to test compounds of the present invention. […] Specific probes of formula (IP) used in the assay are: • P1. 9-Dimethylamino-11,11-dimethyl-1-(3-{methyl-[(6-oxo-5,6-dihydro-phenanthridin-2-ylcarbamoyl)-methyl]-carbamoyl}-propyl)-2,3,4,11-tetrahydro-naphtho[2,3-g]quinolinium trifluoroacetate; • P2. 9-Dimethylamino-11,11-dimethyl-1-[3-(3-{[(6-oxo-5,6-dihydro-phenanthridin-2-ylcarbamoyl)-methyl]-amino}-propylcarbamoyl)-propyl]-2,3,4,11-tetrahydro-naphtho[2,3-g]quinolinium trifluoroacetate; • P3. 9-Dimethylamino-11,11-dimethyl-1-[3-(6-{[(6-oxo-5,6-dihydro-phenanthridin-2-ylcarbamoyl)-methyl]-amino}-hexylcarbamoyl)-propyl]-2,3,4,11-tetrahydro-naphtho[2,3-g]quinolinium trifluoroacetate.
Series [2] deals with PARP-2 (Homo sapiens (Human), UniProt Q9UGN5). The conditions noted are these: probe P1; for DC50: read-out: PARP-2 (DC50 μM); for Kd: read-out: PARP-2 (Kd μM).
Chain of PARP-2 (Q9UGN5 whole entry): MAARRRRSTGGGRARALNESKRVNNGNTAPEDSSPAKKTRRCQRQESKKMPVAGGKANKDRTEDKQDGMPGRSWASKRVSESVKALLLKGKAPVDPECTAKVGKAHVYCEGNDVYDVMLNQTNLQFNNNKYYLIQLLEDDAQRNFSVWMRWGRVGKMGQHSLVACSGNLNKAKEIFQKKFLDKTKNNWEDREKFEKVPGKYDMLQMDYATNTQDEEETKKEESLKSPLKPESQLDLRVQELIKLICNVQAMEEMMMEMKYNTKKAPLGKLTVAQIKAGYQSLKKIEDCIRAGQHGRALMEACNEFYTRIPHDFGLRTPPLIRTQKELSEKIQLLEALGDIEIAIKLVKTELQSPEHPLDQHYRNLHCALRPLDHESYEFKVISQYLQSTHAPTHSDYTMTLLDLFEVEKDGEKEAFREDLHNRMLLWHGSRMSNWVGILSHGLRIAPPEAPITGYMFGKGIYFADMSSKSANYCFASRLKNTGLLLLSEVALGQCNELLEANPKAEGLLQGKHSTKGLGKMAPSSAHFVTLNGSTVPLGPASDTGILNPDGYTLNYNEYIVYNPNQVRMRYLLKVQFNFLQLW
Protocol: as §1, §2, §3
a compound of formula (IP):
as §4
serial dilutions of the test compound;
as §5, §6, §7, §8
The target in series [3] is PARP-1 (Homo sapiens (Human), UniProt P09874). The note with it: for DC50: read-out: PARP-1 (DC50 μM), probe P1, <0.25 = assay sensitivity limit; for Kd: read-out: PARP-1 (Kd μM), probe P3, <0.01 = assay sensitivity limit.
Chain of PARP-1 (P09874 whole entry): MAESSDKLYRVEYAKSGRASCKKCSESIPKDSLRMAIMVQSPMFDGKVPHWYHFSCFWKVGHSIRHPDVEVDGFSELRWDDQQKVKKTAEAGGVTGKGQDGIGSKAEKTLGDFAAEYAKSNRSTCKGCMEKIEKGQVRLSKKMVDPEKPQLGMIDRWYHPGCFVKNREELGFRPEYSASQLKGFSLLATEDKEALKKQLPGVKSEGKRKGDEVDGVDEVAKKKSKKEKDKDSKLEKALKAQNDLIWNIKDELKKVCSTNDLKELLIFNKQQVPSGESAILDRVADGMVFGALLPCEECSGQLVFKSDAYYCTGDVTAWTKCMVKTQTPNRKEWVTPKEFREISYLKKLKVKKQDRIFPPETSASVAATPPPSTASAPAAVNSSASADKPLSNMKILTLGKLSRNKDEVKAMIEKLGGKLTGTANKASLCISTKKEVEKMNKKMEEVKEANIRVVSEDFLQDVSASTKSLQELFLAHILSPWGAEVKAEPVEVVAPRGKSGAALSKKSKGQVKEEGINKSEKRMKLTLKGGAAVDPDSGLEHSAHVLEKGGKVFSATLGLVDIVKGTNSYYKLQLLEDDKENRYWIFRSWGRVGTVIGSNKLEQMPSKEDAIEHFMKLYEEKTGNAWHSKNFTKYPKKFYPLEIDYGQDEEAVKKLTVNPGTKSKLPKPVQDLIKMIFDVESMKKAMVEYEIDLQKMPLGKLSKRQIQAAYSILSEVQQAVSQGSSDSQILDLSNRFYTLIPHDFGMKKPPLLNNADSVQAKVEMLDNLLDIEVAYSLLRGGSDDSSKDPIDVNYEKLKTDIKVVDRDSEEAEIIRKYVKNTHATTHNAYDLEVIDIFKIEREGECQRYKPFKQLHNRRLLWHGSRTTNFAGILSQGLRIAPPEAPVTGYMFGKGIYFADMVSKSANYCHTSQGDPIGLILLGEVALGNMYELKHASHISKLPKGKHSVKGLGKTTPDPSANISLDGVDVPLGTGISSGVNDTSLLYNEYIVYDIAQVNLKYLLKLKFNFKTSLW
Protocol: as §1, §2, §3
a compound of formula (IP):
as §4
serial dilutions of the test compound;
as §5, §6, §7, §8
Series [4] has as its system Capan-1 human pancreatic cancer tumors.
Protocol: Fragments of Capan-1 human pancreatic cancer tumors were implanted subcutaneously. […] Each group included seven animals. The treatment started one day after randomization. Compounds of formula (I) were administered by oral route as a methocel suspension. Tumor dimension was measured regularly by calipers during the experiments and tumor mass was calculated as described in Simeoni M. et al., Cancer Res 2004, 64, 1094-1101.
Temozolomide was administered by oral route at the dose of 50 mg/kg on days 3, 4, 5, 6, 7 and 8. Tumor growth and body weight were measured every 3 days. Tumor growth was assessed by caliper. The two diameters were recorded and the tumor weight was calculated according to the following formula: length (mm)×width^2/2. […] This delay (T−C value) was defined as the difference of time (in days) required for the treatment group (T) and the control group (C) tumors to reach a predetermined size (1 g). Toxicity was evaluated on the basis of body weight reduction and animal survival rate.
The nature of series [5]: Pharmacokinetics and oral bioavailability in the mouse. It is filed as in vivo. The conditions noted are these: for clearance / Vd / AUC / half-life: male, Balb, Nu/Nu, plasma; for clearance / Vd: IV bolus 10 mg/kg; for clearance / Vd / AUC / half-life / C-max (oral): mean; for clearance: read-out: CL (IV bolus); for Vd: read-out: Vdss (IV bolus); for AUC / half-life / C-max (oral): oral 10 mg/kg; for half-life: read-out: T½ (oral) (converted); for F on AUC: oral vs IV dose-normalized AUC, 10 mg/kg.
Protocol: A single administration at the dose of 10 mg/kg was given and three male animals for each route were used. […] After capping and vortex mixing, the plate was centrifuged for 15 minutes at 4000 rpm. The supernatant was considered as final extract and injected onto the LC-MS-MS system (UPLC system: Waters Acquity using BEH C18 50*2.1 mm 1.7 μm analytical column; MS instrument: Waters TQD equipped with Electro-Spray source operating in positive ion mode). Lower limit of quantification is 5.0 ng/mL, upper limit of quantification is 5000 ng/mL. Non-compartmental method (linear trapezoidal rule and linear regression analysis of natural log-transformed plasma concentrations vs. time data) was used. Absolute bioavailability (F) was calculated from the ratio of average oral to IV (intravenous) dose-normalized plasma AUC (area under curve) values.

In series [6] the test system is hydrogen peroxide induced PAR formation in HeLa cells. The series can be described thus: cells. The conditions noted are these: Homo sapiens, read-out: PAR assay (IC50 μM).
Protocol: Cellular activity of PARP-1 inhibitors was assessed by measuring the inhibition of the hydrogen peroxide induced PAR formation in HeLa cells (ECACC). Cellular PAR levels were measured by immunocytochemistry, and quantified using an ArrayScan vTi instrument (Cellomics Thermo Scientific).
Studies were performed as follows: 6000 cells/well were seeded in 96 well plates (Perkin Elmer) in MEM/10% FCS and incubated for 24 hours at 37° C., 5% carbon dioxide. Test compounds were then added at the required concentration for 30 minutes. DNA damage was then induced adding hydrogen peroxide at the concentration of 0.1 mM for 15 minutes. Concentration curves were prepared in MEM/10% FCS from compound stocks in DMSO, and final DMSO concentration was 0.002% (v/v). Duplicate wells for each concentration point were prepared with a typical highest compound concentration of 20 μM and serial dilution 1:3. Plates were dried and fixed adding cold methanol-acetone (70:30) solution for 15 minutes at room temperature, fixing solution was aspired and wells were air dried for 5 minutes and then dehydrated in PBS. Non-specific binding sites were blocked by incubating wells for 30 minutes in PBS containing 5% (w/v) FBS 0.05% tween20. Wells were then incubated for 1 hour at room temperature in PBS containing anti PAR mouse monoclonal antibody (Anti-PAR, Mouse mAb 10H, Tulip Cat N° 1020) diluted 1:200 in blocking solution. After 3 washes in PBS, wells incubated in PBS (w/v) 5% FBS 0.05% Tween20 containing 2 μg/mL Cy2-conjugated Goat anti mouse secondary antibody (Amersham Pharmacia Biotech cat. N° PA 42002) (Absorption maximum 489 nm fluorescence maximum 506 nm) and 1 μg/mL DAPI (Absorption maximum 359 nm fluorescence maximum 461 nm) (4′,6-diamidino-2-phenyindole dilactate) (Sigma cat. N° D9564), a high sensitivity dye for nucleic acid staining. After washing further 3 times in PBS, cellular PAR immunoreactivity was assessed using the ArrayScan vTi instrument, with a Zeiss 10×0.5 N.A. objective, and applying the Cytotoxicity. V3 algorithm (Cellomics/Thermo Fisher) with a XF100 filter. At least 10 fields, corresponding to at least 900 cells, were read for each well.
X is the logarithm of concentration, IC50 is the response; IC50 starts at bottom and goes to top with a sigmoid shape.
[7] abbreviates: temozolomide alone 50 mg/kg oral, days 3-8.

Chain of PARP-3 (Q9Y6F1 whole entry): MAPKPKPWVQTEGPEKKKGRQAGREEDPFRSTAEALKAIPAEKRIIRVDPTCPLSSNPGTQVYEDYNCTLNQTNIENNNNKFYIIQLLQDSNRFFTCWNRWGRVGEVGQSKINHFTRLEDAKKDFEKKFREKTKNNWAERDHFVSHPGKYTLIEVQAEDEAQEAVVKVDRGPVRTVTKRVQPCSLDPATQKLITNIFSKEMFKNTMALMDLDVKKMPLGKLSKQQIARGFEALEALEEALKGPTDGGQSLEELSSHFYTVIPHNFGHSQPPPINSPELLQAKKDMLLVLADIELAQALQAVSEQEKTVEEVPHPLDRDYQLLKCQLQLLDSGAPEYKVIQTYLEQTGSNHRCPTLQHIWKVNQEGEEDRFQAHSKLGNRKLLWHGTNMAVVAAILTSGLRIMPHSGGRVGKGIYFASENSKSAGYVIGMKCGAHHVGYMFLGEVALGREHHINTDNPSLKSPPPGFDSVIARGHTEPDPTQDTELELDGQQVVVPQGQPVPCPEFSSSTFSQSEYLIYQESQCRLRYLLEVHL

Consider `NC(=O)c1cccc2[nH]n(C3CCNCC3)c(=O)c12` [Compound 1, 3-oxo-2-(piperidin-4-yl)-2,3-dihydro-1H-indazole-4-carboxamide], for which the DC50 in series [1] was 0.58 µM; in series [2] it was 1.5 µM; in series [3], less than 0.25 µM. The Kd in series [2] stood at 0.78 µM; in series [3], 0.08 µM.
In the case of `NC(=O)c1cccc2[nH]n(C3CCN(C4CCCC4)CC3)c(=O)c12` [Compound 2, 2-(1-cyclopentylpiperidin-4-yl)-3-oxo-2,3-dihydro-1H-indazole-4-carboxamide], the DC50 in series [1] is more than 10 µM; in series [2] it was 2 µM. Moreover, in series [2], the Kd turned out to be 1.49 µM.
Consider `NC(=O)c1cccc2[nH]n(C3CCN(C4CCCCC4)CC3)c(=O)c12` [Compound 3, 2-(1-cyclohexylpiperidin-4-yl)-3-oxo-2,3-dihydro-1H-indazole-4-carboxamide], for which, in series [1], the DC50 is more than 10 µM. In series [4] (cpd 3 200 mg/kg oral days 1-12 + temozolomide 50 mg/kg oral days 3-8, time to reach 1 g), the “T-C (days)” value is “superior”. The DC50 in series [2] is more than 10 µM. Besides, in series [5], the clearance was 17.8 mL/min/kg, the Vd worked out at 1.3 L/kg, the AUC is 14.3 µM·h and the half-life is 1.77 h. In addition, in series [5], the “C-max (oral)” value worked out at 5.6 µM and the “F on AUC” value is 67%.
Take `NC(=O)c1cccc2[nH]n(C3CCN(C4CCC(F)(F)CC4)CC3)c(=O)c12` [Compound 4, 2-[1-(4,4-difluorocyclohexyl)piperidin-4-yl]-3-oxo-2,3-dihydro-1H-indazole-4-carboxamide]: the DC50 in series [1] and in series [2] was more than 10 µM each time.
Turning to `Cn1c2cccc(C(N)=O)c2c(=O)n1C1CCN(C2CCCCC2)CC1` [Compound 5, 2-(1-cyclohexylpiperidin-4-yl)-1-methyl-3-oxo-2,3-dihydro-1H-indazole-4-carboxamide], in series [1], the DC50 was found to be 2.15 µM. In addition, in series [2], the DC50 stood at 0.91 µM and the dissociation constant (Kd) is 0.54 µM. Also, in series [5], the clearance was 41 mL/min/kg, the Vd turned out to be 4.3 L/kg, the AUC was 10.6 µM·h and the half-life is 1.89 h. Moreover, in series [5], the “C-max (oral)” value stood at 4.77 µM and the “F on AUC” value worked out at 109%.
As for `Cn1c2cccc(C(N)=O)c2c(=O)n1C1CCN(C2CCCC2)CC1` [Compound 7, 2-(1-cyclopentylpiperidin-4-yl)-1-methyl-3-oxo-2,3-dihydro-1H-indazole-4-carboxamide], the DC50 in series [1] was found to be 2.58 µM. Further, in series [2], the DC50 is less than 0.25 µM and the equilibrium dissociation constant (Kd) turned out to be 0.05 µM.
As to `CN1CCC(n2[nH]c3cccc(C(N)=O)c3c2=O)CC1` [Compound 8, 2-(1-methylpiperidin-4yl)-3-oxo-2,3-dihydro-1H-indazole-4-carboxamide], the results for the DC50 in series [1], in series [2] and in series [3] were 2.75 µM, less than 0.25 µM and less than 0.25 µM, respectively. Also, the dissociation constant Kd was 0.04 µM in series [2] and 0.14 µM in series [3]. The IC50 in series [6] stood at 0.6 µM.
With `Cn1c2cccc(C(N)=O)c2c(=O)n1C1CCNCC1` [Compound 9, 1-methyl-3-oxo-2-(piperidin-4-yl)-2,3-dihydro-1H-indazole-4-carboxamide], the DC50 was 0.45 µM in series [1], less than 0.25 µM in series [2] and less than 0.25 µM in series [3]. The equilibrium dissociation constant (Kd) in series [2] was 0.14 µM; in series [3], 0.014 µM. The half-maximal inhibitory concentration (IC50) in series [6] was 0.05 µM.
For `CC(C)N1CCC(n2c(=O)c3c(C(N)=O)cccc3n2C)CC1` [Compound 14, 1-methyl-3-oxo-2-[1-(propan-2-yl)piperidin-4-yl]-2,3-dihydro-1H-indazole-4-carboxamide], in series [1], the DC50 is more than 10 µM. For the same compound, in series [2], the DC50 was less than 0.25 µM and the Kd was found to be 0.03 µM.
For the compound `NC(=O)c1cccc2[nH]n(C3CCN(C4CCC4)CC3)c(=O)c12` [Compound 16, 2-(1-cyclobutylpiperidin-4-yl)-3-oxo-2,3-dihydro-1H-indazole-4-carboxamide], the DC50 in series [1] was more than 10 µM; in series [2] it was 2.57 µM.
The like results for `Cn1c2cccc(C(N)=O)c2c(=O)n1C1CCN(C2CCC2)CC1` [Compound 18, 2-(1-cyclobutylpiperidin-4-yl)-1-methyl-3-oxo-2,3-dihydro-1H-indazole-4-carboxamide] were, in that order, 2.88 µM and less than 0.25 µM.
As for `NC(=O)c1cc(F)cc2[nH]n(C3CCNCC3)c(=O)c12` [Compound 20, 6-fluoro-3-oxo-2-(piperidin-4-yl)-2,3-dihydro-1H-indazole-4-carboxamide], the figures for the DC50 in series [1], in series [2] and in series [3] were 0.25 µM, 0.5 µM and less than 0.25 µM, respectively. For the same compound, the equilibrium dissociation constant (Kd) in series [1] was 0.05 µM; in series [2], 0.3 µM; in series [3], less than 0.01 µM.
`Cn1c2cc(F)cc(C(N)=O)c2c(=O)n1C1CCNCC1` [Compound 21, 6-fluoro-1-methyl-3-oxo-2-(piperidin-4-yl)-2,3-dihydro-1H-indazole-4-carboxamide]: the values for the DC50 in series [1], in series [2] and in series [3] were 0.22 µM, less than 0.25 µM and less than 0.25 µM, respectively. Moreover, the Kd in series [1] is 0.04 µM; in series [2] it was 0.07 µM; in series [3], less than 0.01 µM.
On to `Cn1c2cc(F)cc(C(N)=O)c2c(=O)n1C1CCN(C2CCCCC2)CC1` [Compound 22, 2-(1-cyclohexylpiperidin-4-yl)-6-fluoro-1-methyl-3-oxo-2,3-dihydro-1H-indazole-4-carboxamide], for which, in series [1], the DC50 is 0.7 µM and the dissociation constant Kd was 0.27 µM. Besides, in series [2], the DC50 was found to be 0.79 µM and the Kd was 0.5 µM. Further, in series [5], the clearance was 38.7 mL/min/kg, the Vd is 6.4 L/kg, the AUC was found to be 12.8 µM·h and the half-life was 2.25 h. For the same compound, in series [5], the “C-max (oral)” value turned out to be 4.72 µM and the “F on AUC” value is reported as 150%.
Turning to `NC(=O)c1cc(F)cc2[nH]n(C3CCN(C4CCCCC4)CC3)c(=O)c12` [Compound 23, 2-(1-cyclohexylpiperidin-4-yl)-6-fluoro-3-oxo-2,3-dihydro-1H-indazole-4-carboxamide], the DC50 in series [1] is more than 10 µM. Besides, in series [2], the DC50 turned out to be 5.94 µM and the Kd amounted to 5 µM.
As to `NC(=O)c1cccc2[nH]n(C3CCN(CC4CCCCC4)CC3)c(=O)c12` [Compound 31, 2-[1-(cyclohexylmethyl)piperidin-4-yl]-3-oxo-2,3-dihydro-1H-indazole-4-carboxamide], the DC50 in series [1] and in series [2] was more than 10 µM throughout.
Regarding `Cn1c2cccc(C(N)=O)c2c(=O)n1C1CCN(CC2CCCCC2)CC1` [Compound 33, 2-[1-(cyclohexylmethyl)piperidin-4-yl]-1-methyl-3-oxo-2,3-dihydro-1H-indazole-4-carboxamide], the DC50 is 2.9 µM in series [1] and more than 10 µM in series [2].
As for `NC(=O)c1cccc2[nH]n(C3CCN(Cc4cccs4)CC3)c(=O)c12` [Compound 62, 3-oxo-2-[1-(thiophen-2-ylmethyl)piperidin-4-yl]-2,3-dihydro-1H-indazole-4-carboxamide], the DC50 in series [1] is 0.46 µM; in series [2] it was more than 10 µM; in series [3], less than 0.25 µM. For the same compound, the Kd in series [3] turned out to be 0.022 µM. For the same compound, the IC50 in series [6] was 0.07 µM.
In the case of `Cn1c2cccc(C(N)=O)c2c(=O)n1C1CCN(Cc2cccs2)CC1` [Compound 63, 1-methyl-3-oxo-2-[1-(thiophen-2-ylmethyl)piperidin-4-yl]-2,3-dihydro-1H-indazole-4-carboxamide], the results for the DC50 in series [1] and in series [2] were 1.42 µM and 3.56 µM, respectively.
The like results for `NC(=O)c1cccc2[nH]n(C3CCN(CC4CC=CCC4)CC3)c(=O)c12` (centres unmarked) [Compound 64, 2-[1-(cyclohex-3-en-1-ylmethyl)piperidin-4-yl]-3-oxo-2,3-dihydro-1H-indazole-4-carboxamide] were, in that order, more than 10 µM and more than 10 µM.
Take `Cn1c2cccc(C(N)=O)c2c(=O)n1C1CCN(CC2CC=CCC2)CC1` (centres unmarked) [Compound 65, 2-[1-(cyclohex-3-en-1-ylmethyl)piperidin-4-yl]-1-methyl-3-oxo-2,3-dihydro-1H-indazole-4-carboxamide]: the DC50 in series [1] came out at 1.78 µM. In addition, the DC50 in series [2] is 4.19 µM. In series [5], the clearance is 53.8 mL/min/kg, the Vd worked out at 3.4 L/kg, the AUC was 4.06 µM·h and the half-life was 1.16 h. In series [5], the “C-max (oral)” value was determined as 1.93 µM and the “F on AUC” value was found to be 50%.
For `NC(=O)c1cccc2[nH]n(C3CCN(Cc4ccco4)CC3)c(=O)c12` [Compound 66, 2-[1-(furan-2-ylmethyl)piperidin-4-yl]-3-oxo-2,3-dihydro-1H-indazole-4-carboxamide], the DC50 was 0.58 µM in series [1] and more than 10 µM in series [2].
With `Cn1c2cccc(C(N)=O)c2c(=O)n1C1CCN(Cc2ccco2)CC1` [Compound 67, 2-[1-(furan-2-ylmethyl)piperidin-4-yl]-1-methyl-3-oxo-2,3-dihydro-1H-indazole-4-carboxamide], the figures for the DC50 in series [1] and in series [2] were 2.56 µM and 2.29 µM, respectively.
Regarding `Cn1nnc2c(C(N)=O)ncn2c1=O` [temozolomide], in series [4] (setting [7]), the “BWL (%)” value was 2% and the “Max TGI (%)” value was determined as 13%. Also, in series [4] (temozolomide alone 50 mg/kg oral, days 3-8, seven animals per group), the Toxicity was 0/7. Further, the “T-C” value in series [4] (temozolomide alone 50 mg/kg oral, days 3-8, time to reach 1 g) was found to be 1 days.

A word on the Kd: it is the concentration at which binding is half-saturated. One may read the AUC as concentration integrated over time. A low value points to less exposure. For orientation: IC50 means the concentration at which inhibition is half-maximal.
